{
  "source": "patent US11957648B2",
  "about": "“Method of initiating or escalating dofetilide dose and formulations therefor” (Academic Pharmaceuticals, Inc., priority 2018, dated 2024)",
  "origin": "cited, not measured here",
  "key": {"[1]": {"settings": "oral dosing; cited from earlier work"}, "QTc interval": {"tested_on": "QTc interval", "settings": "slope of plasma concentration vs QTc; Sedgwick et al; cited from earlier work"}},
  "data": [
    {"smiles": "CN(CCOc1ccc(NS(C)(=O)=O)cc1)CCc1ccc(NS(C)(=O)=O)cc1", "note": "[Dofetilide, β-((p-methanesulfonamidophenethyl)methylamino)methanesulfono-p-phenetidide]", "values": [
      {"measurement": "time to reach steady state concentration", "setting": "[1]", "result": "at least 3 days"},
      {"measurement": "QTc change per dofetilide plasma concentration", "setting": "QTc interval", "result": "15 to 25", "unit": "ms/ng/mL"}
    ]}
  ]
}
